Consider six molecules from article PMC10470319 (iScience, 2023).

Entries after “also recorded” stand apart in the source; their conditions may differ.

Series [1] deals with T1, SARS-CoV-2 Mpro (Severe acute respiratory syndrome coronavirus 2, UniProt P0DTD1). It is filed as biochemical.
Series [2] deals with T1, SARS-CoV-2 Mpro. The series is classed as biochemical. This is another data set of the same source.
For series [3], the system named is SARS-CoV-2. The series is classed as cell-based.
The test system of the next series is SARS-CoV-2 infection. As to conditions: in vivo; cited from earlier work.
The target in series [4] is T1, SARS-CoV-2 Mpro. Kind of series: biochemical. As to conditions: for inhibition of Mpro in the initial screen: 17 μM.
For series [5], the system named is SARS-CoV-2. As to conditions: read-out: IC50 for inhibition of SARS-CoV-2 replication; cited from earlier work.
A further series has as its system Calu-3 cells. As to conditions: cited from earlier work.

As for `O=c1c(-c2c(O)cc(O)c3c(=O)cc(-c4ccc(O)cc4)oc23)c(-c2ccc(O)cc2)oc2cc(O)cc(O)c12` [3,8'-Biapigenin], the “inhibition of Mpro activity, mass spectrometry assay” value on SARS-CoV-2 Mpro [1] was “completely inhibited”.

Consider `O=c1cc(-c2ccc(O)c(-c3c(O)cc(O)c4c(=O)cc(-c5ccc(O)cc5)oc34)c2)oc2cc(O)cc(O)c12` [Amentoflavone], for which the “reversibility of Mpro inhibition on dilution” value at SARS-CoV-2 Mpro [2] is listed as “reversible”. At SARS-CoV-2 Mpro [1], the “inhibition of Mpro activity, mass spectrometry assay” value was “completely inhibited”.

As for `O=c1cc(-c2ccccc2)oc2cc(O)c(O)c(O)c12` [Baicalein, reference compound], the “inhibition of SARS-CoV-2 replication (in words)” value in the series with SARS-CoV-2 [3] is “inhibited SARS-CoV-2 infection”. Further, the “reversibility of Mpro inhibition on dilution” value on SARS-CoV-2 Mpro [2] was “reversible”. For the same molecule, in the series with SARS-CoV-2 infection, the “body weight after SARS-CoV-2 infection” value was “prevented reduction in body weight” and the “lung injury resulting from SARS-CoV-2 infection” value is “decreased lung injury”. For the same molecule, the “inhibition of Mpro in the initial screen” value against SARS-CoV-2 Mpro [4] is reported as “showed inhibition”.

`O=c1c(O)c(-c2cc(O)c(O)c(O)c2)oc2cc(O)cc(O)c12` [Myricetin, reference compound]: in the series with SARS-CoV-2 [3], the “inhibition of SARS-CoV-2 replication (in words)” value is “inhibits SARS-CoV-2 replication”. Besides, the “reversibility of Mpro inhibition on dilution” value at SARS-CoV-2 Mpro [2] was “irreversible”. In addition, on SARS-CoV-2 Mpro [4], the “inhibition of Mpro in the initial screen” value is “showed inhibition”.

`O=c1cc(-c2ccc(O)cc2)oc2cc(O)cc(O)c12` [apigenin]: the “toxicity in cell culture” value in the series with Vero E6 cells was “some toxicity”. The IC50 in the series with SARS-CoV-2 [5] is 5.11 ± 0.26 µM; on SARS-CoV-2 Mpro [4] it was 20 ± 9 µM. For the same molecule, the CC50 with Calu-3 cells is 302 ± 15 µM. Moreover, the “inhibition of SARS-CoV-2 replication (in words)” value in the series on SARS-CoV-2 [3] is reported as “slightly better than baicalein at 50 μM; also recorded: inhibits viral replication at concentrations that are not toxic”. Besides, the “reversibility of Mpro inhibition on dilution” value at SARS-CoV-2 Mpro [2] was “reversible”.

In the case of `O=C1C[C@@H](c2ccccc2)Oc2cc(O)cc(O)c21` [pinocembrin], the “inhibition of Mpro (in words)” value on SARS-CoV-2 Mpro [4] is “relatively poor inhibition”.
